Measured values taken from PubChem BioAssay (NCI).
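1) Cells in 96-well plates. 2) Compound, 48 h, 5 concentrations. 3) Linear interpolation between surrounding doses. 4) Unreached endpoint = highest concentration. GI50: concentration for 50% inhibition of growth. TGI: concentration producing complete growth inhibition.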

Key:
Assay in all cases: DTP human tumour cell line panel, 48 h
786-0 renal = tested on: 786-0 renal
A498 renal = tested on: A498 renal
A549 NSCLC = tested on: A549 NSCLC
ACHN renal = tested on: ACHN renal
BT-549 breast = tested on: BT-549 breast
CAKI-1 renal = tested on: CAKI-1 renal
CCRF-CEM leukemia = tested on: CCRF-CEM leukemia
COLO 205 colon = tested on: COLO 205 colon
DU-145 prostate = tested on: DU-145 prostate
EKVX NSCLC = tested on: EKVX NSCLC
HCC-2998 colon = tested on: HCC-2998 colon
HCT-116 colon = tested on: HCT-116 colon
HCT-15 colon = tested on: HCT-15 colon
HL-60(TB) leukemia = tested on: HL-60(TB) leukemia
HOP-62 NSCLC = tested on: HOP-62 NSCLC
HOP-92 NSCLC = tested on: HOP-92 NSCLC
HS 578T breast = tested on: HS 578T breast
HT29 colon = tested on: HT29 colon
IGROV1 ovarian = tested on: IGROV1 ovarian
K-562 leukemia = tested on: K-562 leukemia
KM12 colon = tested on: KM12 colon
LOX IMVI melanoma = tested on: LOX IMVI melanoma
M14 melanoma = tested on: M14 melanoma
MALME-3M melanoma = tested on: MALME-3M melanoma
MDA-MB-231 breast = tested on: MDA-MB-231 breast
MDA-MB-435 = tested on: MDA-MB-435
MOLT-4 leukemia = tested on: MOLT-4 leukemia
NCI-H226 lung = tested on: NCI-H226 lung
NCI-H23 lung = tested on: NCI-H23 lung
NCI-H460 lung = tested on: NCI-H460 lung
NCI-H522 lung = tested on: NCI-H522 lung
NCI/ADR-RES ovarian = tested on: NCI/ADR-RES ovarian
OVCAR-3 ovarian = tested on: OVCAR-3 ovarian
OVCAR-4 ovarian = tested on: OVCAR-4 ovarian
OVCAR-5 ovarian = tested on: OVCAR-5 ovarian
OVCAR-8 ovarian = tested on: OVCAR-8 ovarian
PC-3 prostate = tested on: PC-3 prostate
RPMI-8226 leukemia = tested on: RPMI-8226 leukemia
RXF 393 renal = tested on: RXF 393 renal
SF-268 CNS = tested on: SF-268 CNS
SF-295 CNS = tested on: SF-295 CNS
SF-539 CNS = tested on: SF-539 CNS
SK-MEL-2 melanoma = tested on: SK-MEL-2 melanoma
SK-MEL-28 melanoma = tested on: SK-MEL-28 melanoma
SK-MEL-5 melanoma = tested on: SK-MEL-5 melanoma
SK-OV-3 ovarian = tested on: SK-OV-3 ovarian
SN12C renal = tested on: SN12C renal
SNB-19 CNS = tested on: SNB-19 CNS
SNB-75 CNS = tested on: SNB-75 CNS
SR leukemia = tested on: SR leukemia
SW-620 colon = tested on: SW-620 colon
T-47D breast = tested on: T-47D breast
TK-10 renal = tested on: TK-10 renal
U251 CNS = tested on: U251 CNS
UACC-257 melanoma = tested on: UACC-257 melanoma
UACC-62 melanoma = tested on: UACC-62 melanoma
UO-31 renal = tested on: UO-31 renal

## C=C1C(=O)O[C@H]2[C@H]1CC/C(COC(=O)NCc1[nH]nc3ccccc13)=C\CC[C@@]1(C)O[C@@H]21
786-0 renal
  GI50: 1.72 µM
  TGI: 3.63 µM
A498 renal
  GI50: 12.6 µM
  TGI: 26.3 µM
A549 NSCLC
  GI50: 8.61 µM
  TGI: 25.7 µM
ACHN renal
  GI50: 1.11 µM
  TGI: 2.63 µM
BT-549 breast
  GI50: 2.86 µM
  TGI: 8.93 µM
CAKI-1 renal
  GI50: 1.37 µM
  TGI: 3.91 µM
CCRF-CEM leukemia
  GI50: 0.337 µM
  TGI: 2.51 µM
COLO 205 colon
  GI50: 1.27 µM
  TGI: 2.93 µM
DU-145 prostate
  GI50: 1.24 µM
  TGI: 3.03 µM
EKVX NSCLC
  GI50: 3.1 µM
  TGI: 13.4 µM
HCC-2998 colon
  GI50: 2.78 µM
  TGI: 8.97 µM
HCT-116 colon
  GI50: 0.839 µM
  TGI: 2.53 µM
HCT-15 colon
  GI50: 1.07 µM
  TGI: 2.64 µM
HL-60(TB) leukemia
  GI50: 0.458 µM
  TGI: 2.73 µM
HOP-62 NSCLC
  GI50: 9.72 µM
  TGI: 23.4 µM
HOP-92 NSCLC
  GI50: 2.03 µM
  TGI: 4.11 µM
HS 578T breast
  GI50: 4.35 µM
  TGI: 27.1 µM
HT29 colon
  GI50: 1.18 µM
  TGI: 2.69 µM
IGROV1 ovarian
  GI50: 2.24 µM
  TGI: 9.26 µM
K-562 leukemia
  GI50: 0.473 µM
  TGI: 17.5 µM
KM12 colon
  GI50: 4.25 µM
  TGI: 18.1 µM
LOX IMVI melanoma
  GI50: 1.05 µM
  TGI: 2.43 µM
M14 melanoma
  GI50: 2.03 µM
  TGI: 5.49 µM
MALME-3M melanoma
  GI50: 2.06 µM
  TGI: 4.24 µM
MDA-MB-231 breast
  GI50: 1.64 µM
  TGI: 3.34 µM
MDA-MB-435
  GI50: 1.64 µM
  TGI: 4.42 µM
MOLT-4 leukemia
  GI50: 1.71 µM
  TGI: 5.97 µM
NCI-H226 lung
  GI50: 16.3 µM
  TGI: 33.7 µM
NCI-H23 lung
  GI50: 2.19 µM
  TGI: 7.24 µM
NCI-H460 lung
  GI50: 3.9 µM
  TGI: 15.5 µM
NCI-H522 lung
  GI50: 1.21 µM
  TGI: 2.65 µM
NCI/ADR-RES ovarian
  GI50: 6.22 µM
  TGI: 22.5 µM
OVCAR-3 ovarian
  GI50: 1.06 µM
  TGI: 2.38 µM
OVCAR-4 ovarian
  GI50: 4.06 µM
  TGI: 17.5 µM
OVCAR-5 ovarian
  GI50: 2.59 µM
  TGI: 6.14 µM
OVCAR-8 ovarian
  GI50: 2.67 µM
  TGI: 12.3 µM
PC-3 prostate
  GI50: 1.67 µM
  TGI: 5.79 µM
RPMI-8226 leukemia
  GI50: 0.437 µM
  TGI: 2.98 µM
RXF 393 renal
  GI50: 0.719 µM
  TGI: 2.23 µM
SF-268 CNS
  GI50: 5.52 µM
  TGI: 20 µM
SF-295 CNS
  GI50: 7.24 µM
  TGI: 21.8 µM
SF-539 CNS
  GI50: 1.82 µM
  TGI: 4.72 µM
SK-MEL-2 melanoma
  GI50: 4.11 µM
  TGI: 15.5 µM
SK-MEL-28 melanoma
  GI50: 1.69 µM
  TGI: 3.7 µM
SK-MEL-5 melanoma
  GI50: 2.73 µM
  TGI: 10.5 µM
SK-OV-3 ovarian
  GI50: 11.8 µM
  TGI: 24.4 µM
SN12C renal
  GI50: 1.68 µM
  TGI: 4.64 µM
SNB-19 CNS
  GI50: 5.31 µM
  TGI: 19.6 µM
SNB-75 CNS
  GI50: 5.06 µM
  TGI: 21.1 µM
SR leukemia
  GI50: 0.27 µM
  TGI: 2.89 µM
SW-620 colon
  GI50: 0.596 µM
  TGI: 2.28 µM
T-47D breast
  GI50: 1.74 µM
  TGI: 5.43 µM
TK-10 renal
  GI50: 1.82 µM
  TGI: 3.49 µM
U251 CNS
  GI50: 3.16 µM
  TGI: 13.7 µM
UACC-257 melanoma
  GI50: 2.13 µM
  TGI: 5.01 µM
UACC-62 melanoma
  GI50: 1.56 µM
  TGI: 3.67 µM
UO-31 renal
  GI50: 1.51 µM
  TGI: 2.95 µM
